Data as given in US7704957B2, “Composition for inhibiting HIV activity extracted from Paecilomyces sp. (Tochu-kaso) J300” (priority 2001, dated 2010).
Residues, ends and D or L forms follow the SMILES beside them.

Assays:
[1] = tested on: HIV; experiment: Functional mechanism: sample added 30 minutes before or after virus infection; assay type: cell-based; conditions: sample 30 minutes before infection, FIG. 7
Experimental: To determine whether a material functions or not in the cell, the mixture of cell and sample is incubated for 30 minutes then infected with virus. […] In these case, the samples permeate the membranes of the cell and suppress the propagation of the virus in the cell, as well as the samples attach on the surface of the cell and suppress the introduction of the virus into the cell (FIG. 7)
In addition, after the cell was infected with the virus and incubated for 30 minutes, then the extracts of Tochu-kaso J300 were administered. If the functional site of the active material is out of the cell, the anti-HIV activity would not be detected; on the other hand, if the functional site is in the cell, the activity would be detected. […] This proves that the active material suppresses the propagation of the virus in the cell, even when the sample is administered after a long time after the infection of the cell with virus (FIG. 8).

[2] = tested on: HIV; experiment: Anti-HIV activity: survivability of cells protected from destruction by HIV, XTT method (National Cancer Institute method); assay type: cell-based; conditions: fractions Dong 1-2-1 to 1-2-8
Experimental: In FIGS. 2 to 8, 11 and 18, the term “Infected” (diamond mark ♦) is for the samples that a reagent is applied after the cells are infected with the virus to observe the protection of cells from the cell destruction of HIV. The term “Uninfected” (square mark □) is for the samples that only reagent is added with different concentration to observe the toxicity of the reagent according to the concentration. Further, X axis represents the concentration of the sample and Y axis represents the survivability of the cells in percentages (%).
In the present invention, the measurement of anti-HIV activity followed the method of National Cancer Institute (U.S.A.). In the method, survivability of cells that are protected from the destruction due to HIV was measured when the cells were treated with the active component of the present invention to determine the anti-HIV activity of the material.
In detail, the mixture of cell+HIV+sample (active compound) was cultured for 1 week, and then cell toxicity was measured by XTT method. […]
In this example, colorimetric assay was adopted to observe the growth and death of the cells, which uses the fact that tetrazole salt (MTT, XTT, WST-1) is broken only in the living cell to form non-soluble formazan structure. By quantitating the amount of the formazane wih ELISA method, the amount of living cell is measured quantitatively. […]

Compound | activity when sample is added to the cell and virus infected 30 minutes later [1] | anti-AIDS activity of fractions of Dong 1-2 [2]
COC(C)C1NC(=O)C(CCC(=O)O)NC1=O (stereo not shown) [Dong 1-2-4, 3-[5-(methoxy-ethyl)-3,6-dioxo-piperazine-2-yl]propionic acid] | showed activity | more intense activity compared to others
CC(C)CC(NC(=O)C1CCCN1)C(=O)O (stereo not drawn) [Dong 1-2-5, 4-methyl-2-[(pyrolidine-2-carbonyl)-2-amino]pentanoic acid] (H-Pro-Leu-OH; configuration not given here) | showed activity | more intense activity compared to others
